{"source": "paper PMC4189421", "about": "“Induction of Oligodendrocyte Differentiation and In Vitro Myelination by Inhibition of Rho-Associated Kinase” (ASN NEURO, 2014)", "key": {"[1]": {"tested_on": "mouse neurosphere-derived oligodendrocyte precursor cells (Nph-OPCs)", "assay": "Morphology-based OPC differentiation assay (branches, outgrowth; high-content imaging)", "assay_type": "cell-based", "conditions": "Mus musculus, Oligodendrocyte precursor cell, 72 h, read-out: IC50, generation of branches in OPC differentiation assay", "method": "Neurospheres (Nph) were prepared from embryos at 14.5 days of gestation obtained from timed pregnant females of C57/Bl6 mice, as previously described ([Kornblum, Yanni, Easterday, & Seroogy, 2000]; [Pedraza, Monk, Lei, Hao, & Macklin, 2008]). In brief, after separation of meninges and cerebellum, cerebrum tissue was mechanically triturated with a 1-ml micropipette until total tissue dissociation was achieved, filtered through a 70 -µm cell strainer (Fisher Scientific, Pittsburgh, PA), and plated in 25-cm^2 plastic culture flasks (2 brains/flask). Nph proliferation media (NPM) consisted of Dulbecco’s Modified Eagle Medium (DMEM)/F12, B27 neuronal supplement (Gibco, Baltimore, MD) and 10 ng/ml […] (EGF; Sigma, St. Louis, MO). After 48 to 72 hr, floating Nphs were passaged at a 1 : 1 ratio into 75-cm^2 culture flasks. After a further 48 to 72 hr, they were passaged into 150-cm^2 flasks. Subsequent passages were performed every 3 to 4 days at a ratio of 1 : 2 or 1 : 3 in the same media, and Nph were used to generate OPCs for no more than 12 passages.\nOPCs were generated by chemical disaggregation of Nph with a mouse neural progenitor dissociation kit following the manufacturer instructions (NeuroCult, StemCell Technologies, AB, Canada). The single-cell suspension was then filtered through a 40 -µm cell strainer and plated on poly-D-lysine (PDL)-coated plates. […]\nTo determine the effects of ROCK inhibition on OPCs, we developed a high-content image morphological analysis of OPC differentiation using mouse embryonic neural progenitor-derived OPCs (Nph-OPCs). […] Four images per well were analyzed using a neurite outgrowth module (Molecular Devices, Sunnyvale, CA). We quantified the number of branches and total outgrowth per cell (Figure 1). […] Additionally, nuclear staining by Hoechst allowed the accurate association of branches and processes to their corresponding cell bodies and permitted quantification of total cell numbers in each well."}, "[2]": {"tested_on": "human pluripotent stem cell-derived OPCs (hSC-OPCs)", "assay": "Human stem cell-derived OPC differentiation assay (O4 staining, ArrayScan)", "assay_type": "cell-based", "conditions": "for EC50: Homo sapiens", "method": "Human oligodendrocytes were generated by a proprietary methodology of […] (Weizmann Science Park, Nes-Ziona, Israel; […].com). In brief, 5,000 human embryonic stem cell-derived OPCs (hES-OPCs) were seeded in each well of Matrigel and PDL-coated 96-well black μClear plates (Greiner, Frickenhausen, Germany). […] Twenty-four hours after seeding, medium was removed, and 200 μl of DIF fresh medium containing the compound of interest at a specific dilution (in 0.1% DMSO) was supplemented to the cells (first feeding). Total volume for each well was 200 μl. Four replicates were used for each dose of compound under study. After 48 hr, the media were replenished by removing 100 μl of media, and the same amount of fresh DIF media was added to the wells. Only at the first feeding, DIF media with 0.1% DMSO were used as control of the compound in medium containing 0.1% DMSO. Two experimental sets were conducted for the differentiation assay. On Day 21, live staining of oligodendrocytes was done by incubating the cells with O4 antibody (R&D Systems, Minneapolis, MN) for 20 min followed by detection with goat anti-mouse IgM-FITC (Chemicon) for additional 20 min. Cells were washed twice using DIF media. Immediately after, cells were fixed using 4% paraformaldehyde, and then washed with 1 × PBS, and 4',6-diamidino-2-phenylindole (DAPI; Sigma) was used for nuclear staining. […] Cellomics Neural profiling bioapplication was used for processing and analyzing the images. The 4-parameter Hill-Slope curve fittings were generated by GraphPad Prism software using the least squares fitting method, and EC50 values were calculated for the three major parameters of oligodendrocyte differentiation: number of differentiated oligodendrocytes, number of oligodendrocyte processes, and oligodendrocytes processes length (μm). The negative control groups of each experimental set were used for data normalization. We additionally studied the effect of ROCK inhibition in cultures of OPCs of human origin. […]"}, "[3]": {"tested_on": "MYPT1 phosphorylation in mNph-OPC", "assay": "MYPT1 phosphorylation (sandwich ELISA, western blot) as ROCK target engagement", "conditions": "for Decrease of MYPT1 phosphorylation (ELISA): 4-hr mNph-OPC treatment", "quoted_text": "Tris-glycine acrylamide-bysacrylamide gradient gel electrophoresis was performed as follows: After washing the cells with ice-cold PBS, protein lysates were made by adding 50 µl of PhosphoSafe extraction reagent (EMD Millipore) supplemented with antiprotease cocktail (cOmplete; Roche, Branford, CT) onto each 100-mm^2 cell culture plate. After detaching the cells with the help of a cell scraper and disrupting cell membranes by sonication, the protein extracts were centrifuged (10,000 g, 10 min, 4℃) and the supernatants separated. Protein content was measured by the BCA protein determination method (Biorad, Hercules, CA), and 30 µg of total protein was mixed with SDS sample buffer (Laemmli) supplemented with 1% β-mercaptoethanol. After heating the samples to 70℃ for 10 min, they were loaded onto 4% to 20% acryl-bysacrylamide gradient gels, and electrophoresis was carried out at 120 volts with constant amperage.\nResolved proteins were then transferred onto nitrocellulose membranes using the iBlot methodology and device (Life technologies). […] Secondary detection was performed using Li-Cor IRDye secondary anti-mouse and anti-rabbit antibodies, and near-infrared signal was detected by Li-Cor’s Odyssey imaging system.\nWe assessed MYPT1 phosphorylation in Nph-OPCs treated for 4 hr with ROCK inhibitors in a dose-response experiment and using a sandwich ELISA as a measuring method (MBL International)."}}, "note": "Like-named read-outs stand apart in the source and are kept apart here."}
{"smiles": "C[C@@H](N)[C@H]1CC[C@H](C(=O)Nc2ccncc2)CC1.Cl.Cl", "note": "[Y0503, trans-4-[(1 R)-1-aminoethyl]-N-4-pyridinylcyclohexanecarboxamide dihydrochloride]", "values": [{"measurement": "IC50", "setting": "[1]", "value": 2700, "unit": "nM"}, {"measurement": "EC50", "setting": "[2]; read-out: OLs processes count / well EC50", "value": 88.5, "unit": "nM"}, {"measurement": "EC50", "setting": "[2]; read-out: OLs processes total length / well EC50", "value": 138, "unit": "nM"}, {"measurement": "Differentiation into O4-positive premyelinating stage", "setting": "[2]; hSC-OPCs treated 48 hr, 21 days culture", "value": "dose-response differentiation effect"}, {"measurement": "Decrease of MYPT1 phosphorylation (ELISA)", "setting": "[3]; 30 µM", "value": "~80", "unit": "%"}, {"measurement": "Decrease of MYPT1 phosphorylation (ELISA)", "setting": "[3]; 100 µM", "value": "more than 80%"}, {"measurement": "Duration of downregulation of MYPT1 phosphorylation (western blot)", "setting": "[3]; control levels again after 24 hr of treatment", "value": "over 12 hr"}]}
